One may read the DC50 as the midpoint of the concentration-degradation curve. Broadly, the IC50 is the midpoint of a concentration-inhibition curve.

This passage reports DC50 and IC50 results from patent publication US20250051347A1, “BIFUNCTIONAL CHIMERIC HETEROCYCLIC COMPOUND AND USE THEREOF AS ANDROGEN RECEPTOR DEGRADER” (Hinova Pharmaceuticals, Inc., priority 2021, published 2025).

Read-outs that look alike come from different tables or passages of the source.

Test [1] has as its target T1, androgen receptor (AR) splicing variant AR-v7 (Homo sapiens, UniProt P10275).
T1 construct: The degradation activity of compounds on AR-v7 in 22RV1 cells; host or cells: 22RV1 cells
T1 sequence (P10275 1-644 isoform P10275-3): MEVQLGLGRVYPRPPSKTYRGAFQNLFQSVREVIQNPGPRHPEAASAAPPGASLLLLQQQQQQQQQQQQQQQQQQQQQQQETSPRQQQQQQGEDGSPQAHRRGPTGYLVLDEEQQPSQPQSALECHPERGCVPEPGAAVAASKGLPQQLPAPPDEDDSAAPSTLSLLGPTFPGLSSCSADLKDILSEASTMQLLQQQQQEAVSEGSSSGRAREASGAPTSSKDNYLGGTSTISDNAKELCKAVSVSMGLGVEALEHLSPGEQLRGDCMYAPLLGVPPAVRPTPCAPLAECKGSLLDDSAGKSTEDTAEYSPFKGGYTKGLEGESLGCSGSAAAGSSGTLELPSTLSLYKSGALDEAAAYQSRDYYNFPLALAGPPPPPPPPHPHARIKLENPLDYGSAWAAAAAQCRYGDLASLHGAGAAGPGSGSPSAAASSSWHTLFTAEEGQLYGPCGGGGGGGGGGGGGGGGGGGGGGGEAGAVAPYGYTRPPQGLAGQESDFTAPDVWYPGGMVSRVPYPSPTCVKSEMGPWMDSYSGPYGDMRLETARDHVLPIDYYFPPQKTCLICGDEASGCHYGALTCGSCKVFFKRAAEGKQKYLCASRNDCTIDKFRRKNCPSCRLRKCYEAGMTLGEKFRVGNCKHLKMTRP
The test is described as follows: Degradation activity on androgen receptor splicing variant AR-v7 in 22RV1 cells (ELISA). In kind it is cell-based. The settings on record: AR-v7 degradation in 22RV1 cells, 48 h, class symbols.

Test [2] relates to 22RV1 cells.
The mark [3] stands for this setting: read-out: 22RV1 IC50, 22RV1 cells, 6 days culture, CCK-8, OD 450 nm.
Setting [4] is: Homo sapiens, 22Rv1, 144 h, read-out: 22RV1 IC50 (nM), 22RV1 cells, 6 days culture, CCK-8, OD 450 nm.

In the case of `Cc1nc(-c2ncc(Oc3ccc(C(C)(C)c4ccc(OC5CC(Nc6ccc7c(c6)C(=O)N(C6CCC(=O)NC6=O)C7=O)C5)cn4)cc3)cn2)no1` (stereo not drawn) [Example 221, 2-(2,6-dioxopiperidin-3-yl)-5-((1r,3r)-3-((6-(2-(4-((2-(5-methyl-1,2,4-oxadiazol-3-yl)pyrimidin-5-yl)oxy)phenyl)propan-2-yl)pyridin-3-yl)oxy)cyclobutyl)amino)isoindolin-1,3-dione], the 50% degradation concentration (DC50) in test [1] is below 10 nM. Further, the half-inhibitory concentration (IC50) in test [2] (setting [3]) is 6 nM.
On to `CC(=O)c1ncc(Oc2ccc(C(C)(C)c3ccc(OC4CC(Nc5ccc6c(c5)C(=O)N(C5CCC(=O)NC5=O)C6=O)C4)cn3)cc2)cn1` (stereo not drawn) [Example 222, 5-((1r,3r)-3-((6-(2-(4-((2-acetylpyrimidin-5-yl)oxy)phenyl)propan-2-yl)pyridin-3-yl)oxy)cyclobutyl)amino)-2-(2,6-dioxopyridin-3-yl)isoindolin-1,3-dione], for which the 50% degradation concentration (DC50) in test [1] is below 10 nM. Also, the IC50 in test [2] (setting [3]) was 3 nM.
In test [1], `Cc1nc(COc2ccc(C(C)(C)c3ccc(OCCCNc4ccc5c(c4)C(=O)N(C4CCC(=O)NC4=O)C5=O)cc3)cc2)cs1` (stereo not drawn) [Example 225, 2-(2,6-dioxopiperidin-3-yl)-5-((3-(4-(2-(4-((2-methylthiazol-4-yl)methoxy)phenyl)propan-2-yl)phenoxy)propyl)amino)isoindolin-1,3-dione] displayed a half-maximal degradation concentration (DC50) of 11 to 100 nM. The IC50 in test [2] (setting [4]) came to 60 nM.
As for `CC(C)(c1ccc(OCCCNc2ccc3c(c2)C(=O)N(C2CCC(=O)NC2=O)C3=O)cc1)c1ccc(OCc2ccnc(-n3ccnn3)n2)cc1` (stereo not drawn) [Example 228, 5-((3-(4-(2-(4-((2-(1H-1,2,3-triazol-1-yl)pyrimidin-4-yl)methoxy)phenyl)propan-2-yl)phenoxy)propyl)amino)-2-(2,6-dioxopiperidin-3-yl)isoindolin-1,3-dione], in test [1], the 50% degradation concentration (DC50) fell in the range of 11 to 100 nM. In test [2] (setting [4]), the IC50 is 22 nM.
In test [1], `CC(C)(c1ccc(OCCCNc2ccc3c(c2)C(=O)N(C2CCC(=O)NC2=O)C3=O)cc1)c1ccc(OCc2ccnc(-n3nccn3)n2)cc1` (stereo not drawn) [Example 229, 5-((3-(4-(2-(4-((2-(2H-1,2,3-triazol-2-yl)pyrimidin-4-yl)methoxy)phenyl)propan-2-yl)phenoxy)propyl)amino)-2-(2,6-dioxopiperidin-3-yl)isoindolin-1,3-dione] displayed a 50% degradation concentration (DC50) of 11 to 100 nM. Besides, the IC50 in test [2] (setting [4]) is 31 nM.
For `CC(C)(c1ccc(OCc2ccnc(-n3ccnn3)n2)cc1)c1ccc(O[C@H]2C[C@H](Nc3ccc4c(c3)C(=O)N(C3CCC(=O)NC3=O)C4=O)C2)cc1` (stereo partly drawn) [Example 230], in that order: below 10 nM and 9 nM.
The like results for `CC(C)(c1ccc(OCc2ccnc(N3CC[C@H](O)C3)n2)cc1)c1ccc(O[C@H]2C[C@@H](Nc3ccc4c(c3)C(=O)N(C3CCC(=O)NC3=O)C4=O)C2)cc1` (stereo partly drawn) [Example 233] were, in that order, below 10 nM and 16 nM.
The compound `CC(C)(c1ccc(OCc2ccnc(NC3COC3)n2)cc1)c1ccc(O[C@H]2C[C@@H](Nc3ccc4c(c3)C(=O)N(C3CCC(=O)NC3=O)C4=O)C2)cc1` (stereo partly drawn) [Example 237] yielded a DC50 in test [1] below 10 nM. The half-maximal inhibitory concentration (IC50) in test [2] (setting [4]) is 9 nM.
The like results for `CC(C)(c1ccc(Oc2ccnc(N3CC4(COC4)C3)n2)cc1)c1ccc(O[C@H]2C[C@H](Nc3ccc4c(c3)C(=O)N(C3CCC(=O)NC3=O)C4=O)C2)cc1` (stereo partly drawn) [Example 244, 5-((1r,3r)-3-(4-(2-(4-(4-((2-(2-oxa-6-azaspiro[3.3]heptane-6-yl)pyrimidin-4-yl)oxy)phenyl)propan-2-yl)phenoxy)cyclobutyl)amino)-2-(2,6-dioxopiperidin-3-yl)isoindolin-1,3-dione] were, in that order, below 10 nM and 6 nM.
The like results for `CC(=O)c1nccc(Oc2ccc(C(C)(C)c3ccc(O[C@H]4C[C@H](Nc5ccc6c(c5)C(=O)N(C5CCC(=O)NC5=O)C6=O)C4)cc3)cc2)n1` (stereo partly drawn) [Example 246] were, in that order, below 10 nM and 5 nM.
For `CC(c1nccc(COc2ccc(C(C)(C)c3ccc(O[C@H]4C[C@H](Nc5ccc6c(c5)C(=O)N(C5CCC(=O)NC5=O)C6=O)C4)cc3)cc2)n1)N1CCC1` (stereo partly drawn) [Example 249], in that order: below 10 nM and 6 nM.
For `CC(C)(c1ccc(Oc2cccc(-n3nccn3)n2)cc1)c1ccc(O[C@H]2C[C@H](Nc3ccc4c(c3)C(=O)N(C3CCC(=O)NC3=O)C4=O)C2)cc1` (stereo partly drawn) [Example 256, 5-((1r,3r)-3-(4-(2-(4-((6-(2H-1,2,3-triazol-2-yl)pyridin-2-yl)oxy)phenyl)propan-2-ylphenoxy)cyclobutyl)amino)-2-(2,6-dioxopiperidin-3-yl)isoindolin-1,3-dione], in test [1], the DC50 was below 10 nM. Also, the IC50 in test [2] (setting [4]) is 2 nM.
For `CC(C)(c1ccc(Oc2ccc(N3CC(N4CC(F)C4)C3)nn2)cc1)c1ccc(O[C@H]2C[C@H](Nc3ccc4c(c3)C(=O)N(C3CCC(=O)NC3=O)C4=O)C2)cc1` (stereo partly drawn) [Example 258], in that order: 101 to 1000 nM and 8 nM.
In the case of `CC(C)(c1ccc(Oc2cnc(C(N)=O)nc2)cc1)c1ccc(O[C@H]2C[C@H](Nc3ccc4c(c3)C(=O)N(C3CCC(=O)NC3=O)C4=O)C2)cc1` (stereo partly drawn) [Example 265, 5-(4-(2-(4-((1r,3r)-3-((2-(2,6-dioxopiperidin-3-yl)-1,3-dioxoisoindolin-5-yl)amino)cyclobutyloxy)phenyl)propan-2-yl)phenoxy)pyrimidin-2-carbonylamine], the DC50 in test [1] is below 10 nM. Further, in test [2] (setting [4]), the half-inhibitory concentration (IC50) worked out at 4 nM.
The like results for `Cn1cc(-c2nccc(COc3ccc(C(C)(C)c4ccc(O[C@H]5C[C@@H](Nc6ccc7c(c6)C(=O)N(C6CCC(=O)NC6=O)C7=O)C5)cc4)cc3)n2)cn1` (stereo partly drawn) [Example 270] were, in that order, below 10 nM and 10 nM.
For `CC(C)(c1ccc(OCc2ccnc(-c3cn[nH]c3)n2)cc1)c1ccc(O[C@H]2C[C@@H](Nc3ccc4c(c3)C(=O)N(C3CCC(=O)NC3=O)C4=O)C2)cc1` (stereo partly drawn) [Example 273], in that order: below 10 nM and 10 nM.
`CC(C)(c1ccc(OCc2ccnc(-c3ncon3)n2)cc1)c1ccc(O[C@H]2C[C@@H](Nc3ccc4c(c3)C(=O)N(C3CCC(=O)NC3=O)C4=O)C2)cc1` (stereo partly drawn) [Example 276] yielded a 50% degradation concentration (DC50) in test [1] below 10 nM. Also, the IC50 in test [2] (setting [4]) came out at 6 nM.
In test [1], `CC(C)(c1ccc(OCc2ccnc(C#N)n2)cc1)c1ccc(O[C@H]2C[C@@H](Nc3ccc4c(c3)C(=O)N(C3CCC(=O)NC3=O)C4=O)C2)cc1` (stereo partly drawn) [Example 277, 4-((4-(2-(4-((1s,3s)-3-((2-(2,6-dioxopiperidin-3-yl)-1,3-dioxoisoindolin-5-yl)amino)cyclobutyloxy)phenyl)propan-2-yl)phenoxy)methyl)pyrimidin-2-carbonitrile] gave a half-maximal degradation concentration (DC50) below 10 nM. Besides, the concentration for half-maximal inhibition (IC50) in test [2] (setting [4]) was found to be 5 nM.
In test [1], `Cc1nc(-c2nccc(COc3ccc(C(C)(C)c4ccc(O[C@H]5C[C@@H](Nc6ccc7c(c6)C(=O)N(C6CCC(=O)NC6=O)C7=O)C5)cc4)cc3)n2)no1` (stereo partly drawn) [Example 278] came in with a DC50 below 10 nM. For the same compound, the IC50 in test [2] (setting [4]) stood at 6 nM.
The like results for `CC(Oc1ccc(C(C)(C)c2ccc(O[C@H]3C[C@H](Nc4ccc5c(c4)C(=O)N(C4CCC(=O)NC4=O)C5=O)C3)cc2)cc1)c1ncnc(N2CC3(COC3)C2)c1F` (stereo partly drawn) [Example 280] were, in that order, below 10 nM and 7 nM.
The like results for `CC(C)(c1ccc(OCc2ccnc(-c3ncon3)n2)cc1)c1ccc(O[C@H]2C[C@H](Nc3ccc4c(c3)C(=O)N(C3CCC(=O)NC3=O)C4=O)C2)cc1` (stereo partly drawn) [Example 281] were, in that order, below 10 nM and 5 nM.
`Cc1nc(-c2nccc(Oc3ccc(C(C)(C)c4ccc(O[C@H]5C[C@H](Nc6ccc7c(c6)C(=O)N(C6CCC(=O)NC6=O)C7=O)C5)cc4)cc3)n2)no1` (stereo partly drawn) [Example 288]: the DC50 in test [1] is below 10 nM. The half-inhibitory concentration (IC50) in test [2] (setting [4]) amounted to 4 nM.
For `Cc1nnc(-c2nccc(Oc3ccc(C(C)(C)c4ccc(O[C@H]5C[C@H](Nc6ccc7c(c6)C(=O)N(C6CCC(=O)NC6=O)C7=O)C5)cc4)cc3)n2)o1` (stereo partly drawn) [Example 289], in that order: below 10 nM and 7 nM.
`CC(C)C(O)c1ncc(Oc2ccc(C(C)(C)c3ccc(O[C@H]4C[C@H](Nc5ccc6c(c5)C(=O)N(C5CCC(=O)NC5=O)C6=O)C4)cc3)cc2)cn1` (stereo partly drawn) [Example 290] had a DC50 in test [1] below 10 nM. Besides, the 50% inhibitory concentration (IC50) in test [2] (setting [4]) is 7 nM.
For `CC(C)C(=O)c1ncc(Oc2ccc(C(C)(C)c3ccc(O[C@H]4C[C@H](Nc5ccc6c(c5)C(=O)N(C5CCC(=O)NC5=O)C6=O)C4)cc3)cc2)cn1` (stereo partly drawn) [Example 291], in that order: below 10 nM and 16 nM.
For `Cc1nc(-c2ncc(Oc3ccc(C4(c5ccc(O[C@H]6C[C@H](Nc7ccc8c(c7)C(=O)N(C7CCC(=O)NC7=O)C8=O)C6)cc5)CCCC4)cc3)cn2)no1` (stereo partly drawn) [Example 293], in that order: below 10 nM and 2.5 nM.
`CCC(CC)(c1ccc(Oc2cnc(C(C)=O)cn2)cc1)c1ccc(O[C@H]2C[C@H](Nc3ccc4c(c3)C(=O)N(C3CCC(=O)NC3=O)C4=O)C2)cc1` (stereo partly drawn) [Example 294] showed a DC50 in test [1] below 10 nM. Further, in test [2] (setting [4]), the IC50 was 4.2 nM.
